According to PMC10054553, “Development of the First ^18F-Labeled Radiohybrid-Based Minigastrin Derivative with High Target Affinity and Tumor Accumulation by Substitution of the Chelating Moiety” (Pharmaceutics, 2023):

Target: T1, CCK-2R (Rattus norvegicus, UniProt P30553)
T1 construct: CCK-2R-expressing rat pancreatic cancer cells AR42J; host or cells: AR42J (rat pancreatic cancer cells)
T1 sequence (P30553 1-452): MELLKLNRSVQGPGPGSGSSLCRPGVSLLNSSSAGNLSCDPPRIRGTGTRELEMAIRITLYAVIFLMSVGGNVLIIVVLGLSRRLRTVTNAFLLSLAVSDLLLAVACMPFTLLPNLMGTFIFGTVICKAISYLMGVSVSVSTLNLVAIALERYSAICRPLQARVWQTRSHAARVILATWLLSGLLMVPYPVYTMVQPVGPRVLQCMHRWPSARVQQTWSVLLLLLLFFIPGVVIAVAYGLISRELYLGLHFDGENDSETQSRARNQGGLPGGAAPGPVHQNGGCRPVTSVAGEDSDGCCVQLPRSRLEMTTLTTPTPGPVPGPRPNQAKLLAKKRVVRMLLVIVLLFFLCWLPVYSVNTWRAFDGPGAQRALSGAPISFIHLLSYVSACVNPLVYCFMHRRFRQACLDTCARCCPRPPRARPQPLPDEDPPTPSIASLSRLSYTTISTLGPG
Assay: CCK-2R-mediated internalization on AR42J cells
Format: cell-based
Conditions: for Internalization Values (%F11N) 6 h: relative to the reference DOTA-PP-F11N; for Internalization Values (%) 1 h / Internalization Values (%) 2 h / Internalization Values (%) 4 h / Internalization Values (%) 6 h: % of applied activity, 37 °C, 0.25 pmol/well, AR42J cells
Description: Figure 3 (a) CCK-2R-mediated internalization (0.25 pmol/well) measured on AR42J cells as percent (%) of applied activity (incubation at 37 °C for 1, 2, 4 and 6 h, RPMI 1640, 5 mm L-Gln, 5 mL non-essential amino acids (100×), 10% FCS + 5% BSA (v/v), 3.0 × 10^5 cells/mL/well). (b) CCK-2R-mediated internalization of [^177Lu]Lu-DOTA-rhCCK-16 (green), [^177Lu]Lu-(R)-DOTAGA-rhCCK-16 (orange), [^177Lu]Lu-DOTA-rhCCK-18 (red) and […] after incubation at 37 °C for 6 h as percent of reference (% of [^177Lu]Lu-DOTA-PP-F11N). * data taken from Holzleitner et al..
Cell Culture. CCK-2R-expressing rat pancreatic cancer cells AR42J (CLS GmbH, Eppelheim, Germany) were cultivated in monolayers in CELLSTAR® cell culture flasks acquired from Greiner Bio-One GmbH (Frickenhausen, Germany) at 37°C in a humidified atmosphere (5% CO2) using a HERAcell 150i-Incubator (Thermo Fisher Scientific Inc., Waltham, United States). The nutrient medium RPMI 1640 medium, supplemented with 5 mM L-Gln 5 mL non-essential amino acids (100×) and 10% FCS, was used. Furthermore, a Dulbecco’s PBS solution with 0.1% EDTA (v/v) was applied to detach the cells for cell passaging. The detached cells were counted using a Neubauer hemocytometer (Paul Marienfeld, Lauda-Königshofen, Germany). In addition, all operations under sterile conditions were accomplished using a MSC-Advantage safety workbench (Thermo Fisher Scientific Inc., Waltham, United States). […]
Internalization Studies. For the determination of the internalization kinetics of the various peptides, AR42J cells (3.0 × 10^5 cells/well) were seeded into polylysine-coated 24-well plates, adding 1 mL of nutrient medium. Afterwards, the cells were incubated for 24 ± 2 h at 37°C in a humidified atmosphere […]
On the day of the experiment, the medium was removed, and each well was washed with nutrient medium (300 μL). Afterwards 200 μL of nutrient medium, 25 μL of the 177Lu-labeled peptide (0.3 pmol, n = 6) and either 25 μL of nutrient medium for internalization studies ( n = 3) or 25 μL of [natLu]Lu-DOTA-PP-F11N (10 μmol) for competition studies ( n = 3) were added. Thereafter, the assay was incubated for various time points (1, 2, 4 and 6 h) at 37°C in a humidified atmosphere (5% CO2). After incubation, the cells were put on ice for at least 1 min to stop internalization kinetics and the supernatant was collected. Then, the cells were washed with an ice-cold nutrient medium (300 μL) and both fractions were unified. In order to displace the peptides from the cell membrane, 300 μL of an ice-cold glycine buffer (1 M, pH = 2.2) were added and the cells were incubated on ice for 15 min. Afterwards, the supernatant was collected, and the cells were washed with an ice-cold glycine buffer (300 μL, 1 M, pH = 2.2) while both fractions were unified. After lysis of the cells with NaOH (300 μL, 1 N) for 15 min, the respective wells were washed with NaOH (300 μL, 1 N) and both fractions were unified. The radioactivity of the supernatant, the acid wash and the lysed fractions were quantified using a γ-counter.
Lipophilicity Studies. Lipophilicity (depicted as octanol-phosphate-buffered saline solution (PBS, pH = 7.4) distribution coefficient, logD7.4) was determined by dissolving the 177Lu-labelled peptide (approx. 1 MBq) in a mixture (1/1, v/v) of n-octanol and PBS. The suspension was vortexed in a reaction vial (1.5 mL) for 3 min at room temperature and the vial was centrifuged at 9000 rpm for 5 min (Biofuge 15, Heraus Sepatech GmbH, Osterode, Germany). Amounts of 200 μL aliquots of both layers were measured separately in a γ-counter (Perkin Elmer, Waltham, MA, USA). The experiment was repeated […]
Stability Studies in Human Serum. The 177Lu- as well as 67Ga-labeled CCK-2R ligands (1 nmol, approx. 5 MBq) were incubated for 24 h in human serum (200 μL) at 37 °C. After incubation, ice-cold EtOH (125 μL) and MeCN (375 μL) were added and the suspension was centrifuged for 5 min at […]
5000 rpm. […]

| Structure (SMILES) | Internalization Values (%F11N) 6 h [%F11N] | Internalization Values (%) 1 h [%] | Internalization Values (%) 2 h [%] | Internalization Values (%) 4 h [%] | Internalization Values (%) 6 h [%] |
| --- | --- | --- | --- | --- | --- |
| CCCC[C@H](NC(=O)[C@H](Cc1c[nH]c2ccccc12)NC(=O)CNC(=O)[C@H](Cc1ccc(O)cc1)NC(=O)[C@H](C)NC(=O)CC[C@@H](NC(=O)CC[C@@H](NC(=O)CC[C@@H](NC(=O)CC[C@@H](NC(=O)CC[C@@H](NC(=O)CC[C@@H](NC(=O)CC[C@@H](NC(=O)CC[C@@H](NC(=O)[C@@H](CNC(=O)c1ccc([Si](F)(C(C)(C)C)C(C)(C)C)cc1)NC(=O)CN1CCN(CC(=O)O)CCN(CC(=O)O)CCN(CC(=O)O)CC1)C(=O)O)C(=O)O)C(=O)O)C(=O)O)C(=O)O)C(=O)O)C(=O)O)C(=O)O)C(=O)N[C@@H](CC(=O)O)C(=O)N[C@@H](Cc1ccccc1)C(N)=O [[^19F]F-[^177Lu]Lu-DOTA-rhCCK-18] [metal not drawn] | 244 ± 7 | 15.4 ± 1.4 | 24.1 ± 1.6 | 41.6 ± 2.6 | 54.8 ± 1.5 |
| CCCC[C@H](NC(=O)[C@H](Cc1c[nH]c2ccccc12)NC(=O)CNC(=O)[C@H](Cc1ccc(O)cc1)NC(=O)[C@H](C)NC(=O)CC[C@@H](NC(=O)CC[C@@H](NC(=O)CC[C@@H](NC(=O)CC[C@@H](NC(=O)CC[C@@H](NC(=O)CC[C@@H](NC(=O)[C@@H](CNC(=O)c1ccc([Si](F)(C(C)(C)C)C(C)(C)C)cc1)NC(=O)CN1CCN(CC(=O)O)CCN(CC(=O)O)CCN(CC(=O)O)CC1)C(=O)O)C(=O)O)C(=O)O)C(=O)O)C(=O)O)C(=O)O)C(=O)N[C@@H](CC(=O)O)C(=O)N[C@@H](Cc1ccccc1)C(N)=O [[^177Lu]Lu-DOTA-rhCCK-16, metal not drawn] | 215 ± 7 | 19.5 ± 2.3 | 33.1 ± 1.7 | 43.9 ± 0.7 | 51.1 ± 1.7 |
